Drawing on patent publication EP2970215B1, “PYRROLIDINE DERIVATIVES, PHARMACEUTICAL COMPOSITIONS CONTAINING THEM, AND THEIR USE IN THERAPY” (AbbVie Deutschland GmbH & Co. KG, priority 2013, dated 2014), this text covers Ki for 27 molecules.

As usually defined, the Ki is the equilibrium dissociation constant of an inhibitor or competing ligand from its target.

A value given as a limit tells only on which side of the number the result lay.

The target of one test is T1, human GlyT1c transporter (Homo sapiens, UniProt P48067).
T1 construct: expressed in transfected cells; host or cells: CHO cells (recombinant; line hGlyT1c_5_CHO is named for the uptake assay)
T1 sequence (P48067 1-706): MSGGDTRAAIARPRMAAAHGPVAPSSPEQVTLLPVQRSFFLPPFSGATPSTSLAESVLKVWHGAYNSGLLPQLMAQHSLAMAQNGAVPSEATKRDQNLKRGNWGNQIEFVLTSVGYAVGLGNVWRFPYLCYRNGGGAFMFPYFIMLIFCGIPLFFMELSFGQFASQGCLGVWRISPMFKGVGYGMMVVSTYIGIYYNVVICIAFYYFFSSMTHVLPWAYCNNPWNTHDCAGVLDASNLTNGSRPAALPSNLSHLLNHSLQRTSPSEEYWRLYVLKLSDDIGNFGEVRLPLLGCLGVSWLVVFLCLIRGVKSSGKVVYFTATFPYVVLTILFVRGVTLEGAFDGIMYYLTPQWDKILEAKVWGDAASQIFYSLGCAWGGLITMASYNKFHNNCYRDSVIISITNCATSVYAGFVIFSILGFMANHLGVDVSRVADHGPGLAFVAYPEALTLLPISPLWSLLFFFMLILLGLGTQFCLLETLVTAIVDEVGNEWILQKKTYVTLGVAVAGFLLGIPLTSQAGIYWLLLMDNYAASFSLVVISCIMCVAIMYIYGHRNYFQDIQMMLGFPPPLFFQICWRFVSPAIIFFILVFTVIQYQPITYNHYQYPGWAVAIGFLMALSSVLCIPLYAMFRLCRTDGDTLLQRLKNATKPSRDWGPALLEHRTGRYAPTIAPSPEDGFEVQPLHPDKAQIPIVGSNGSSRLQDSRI
As to the kind of experiment: Radioligand binding assay using recombinant CHO cell membranes expressing human GlyT1. The following applies: radioligand binding to human GlyT1c transporter-expressing membranes. From the text:
2. Radioligand binding assays using recombinant CHO cell membranes expressing human GlyT1: […]
As to `Cn1cnc(S(=O)(=O)N2C[C@@H](Nc3cncc(C(F)(F)F)c3)[C@H](c3ccccc3)C2)c1` (relative stereo) [Example 213, N-{trans-1-[(1-methyl-1H-imidazol-4-yl)sulfonyl]-4-phenylpyrrolidin-3-yl} -5 - (trifluoromethyl)pyridin-3-amine], the inhibitory constant (Ki) is at most 1 µM.
Still for that read-out and setting: for `Cn1cnc(S(=O)(=O)N2C[C@@H](NCc3ccc(C(F)(F)F)cc3Cl)[C@H](c3ccccn3)C2)c1` (relative stereo) [Example 320, trans-N-[2-chloro-4-(trifluoromethyl)benzyl]-1-[(1-methyl-1H-imidazol-4-yl)sulfonyl]-4-(pyridin-2-yl)pyrrolidin-3-amine] the value was at most 0.01 µM; for `CCCC1CC1CN[C@H]1CN(S(=O)(=O)c2cn(C)cn2)C[C@@H]1c1ccccc1` (stereo partly drawn) [Example 650, (3R,4S)-1-[(1-methyl-1H-imidazol-4-yl)sulfonyl]-4-phenyl-N-[(2-propylcyclopropyl)methyl]pyrrolidin-3-amine], at most 1 µM; for `Cn1cnc(S(=O)(=O)N2C[C@H](Nc3ccc(F)cn3)[C@@H](c3ccc(F)cc3)C2)c1` [Example 737, 5-fluoro-N-{(3R,4S)-4-(4-fluorophenyl)-1-[(1-methyl-1H-imidazol-4-yl)sulfonyl]pyrrolidin-3-yl}pyridin-2-amine], at most 0.1 µM.
Still for that read-out and setting: the value for `Cn1cnc(S(=O)(=O)N2C[C@@H](NCc3ccc(C(F)(F)F)cc3Cl)[C@H](c3ccc(F)cc3)C2)c1` [Example 321, (3S,4R)-N-[2-chloro-4-(trifluoromethyl)benzyl]-4-(4-fluorophenyl)-1-[(1-methyl-1H-imidazol-4-yl)sulfonyl]pyrrolidin-3-amine] was at most 1 µM; that for `Cn1cnc(S(=O)(=O)N2C[C@@H](NC(=O)c3cccc(C#N)c3)[C@H](c3ccccc3)C2)c1` (relative stereo) [Example 33, 3-cyano-N-{trans-1-[(1-methyl-1H-imidazol-4-yl)sulfonyl]-4-phenylpyrrolidin-3-yl}benzamide] was at most 10 µM.
Same read-out and setting: the value for `Cn1cnc(S(=O)(=O)N2C[C@@H](Nc3ccc(Cl)c(Cl)c3)[C@H](c3cccc(F)c3)C2)c1` (relative stereo) [Example 192, trans-N-(3,4-dichlorophenyl)-4-(3-fluorophenyl)-1-[(1-methyl-1H-imidazol-4-yl)sulfonyl]pyrrolidin-3-amine] was at most 1 µM; that for `Cn1cnc(S(=O)(=O)N2C[C@@H](Nc3cc(C(F)(F)F)ccn3)[C@H](c3ccccc3)C2)c1` (relative stereo) [Example 212, N-{trans-1-[(1-methyl-1H-imidazol-4-yl)sulfonyl]-4-phenylpyrrolidin-3-yl}-4-(trifluoromethyl)pyridin-2-amine] was at most 0.1 µM; that for `Cn1cnc(S(=O)(=O)N2C[C@@H](C(=O)c3cccc(Cl)c3)[C@H](c3ccc(F)cc3)C2)c1` (relative stereo) [Example 297, (3-chlorophenyl){trans-4-(4-fluorophenyl)-1-[(1-methyl-1H-imidazol-4-yl)sulfonyl]pyrrolidin-3-yl}methanone] was at most 0.01 µM.
`CCCCC(O)C(=O)N[C@H]1CN(S(=O)(=O)c2cn(C)cn2)C[C@@H]1c1ccc(F)cc1` (stereo partly drawn) [Example 673, N-{(3R,4S)-4-(4-fluorophenyl)-1-[(1-methyl-1H-imidazol-4-yl)sulfonyl]pyrrolidin-3-yl}-2-hydroxyhexanamide]: the Ki was at most 1 µM.
Turning to `CCCS(=O)(=O)N1C[C@@H](NC(=O)c2cccc(C(F)(F)F)c2Cl)[C@H](c2ccccc2)C1` (relative stereo) [Example 127, 2-chloro-N-[trans-4-phenyl-1-(propylsulfonyl)pyrrolidin-3-yl]-3-(trifluoromethyl)benzamide], the Ki is at most 10 µM.
The same measure, in the same setting: for `Cn1cnc(S(=O)(=O)N2C[C@@H](NC(=O)c3cccc(C(F)(F)F)c3Cl)[C@H](c3ccc(Cl)cc3)C2)c1` (relative stereo) [Example 13, 2-chloro-N-{trans-4-(4-chlorophenyl)-1-[(1-methyl-1H-imidazol-4-yl)sulfonyl]pyrrolidin-3-yl}-3-(trifluoromethyl)benzamide] the value was at most 1 µM.
For `CC(C)c1cc(N[C@H]2CN(S(=O)(=O)c3cn(C)cn3)C[C@@H]2c2ccc(F)cc2)ccc1Cl` [Example 675, (3R,4S)-N-[4-chloro-3-(propan-2-yl)phenyl]-4-(4-fluorophenyl)-1-[(1-methyl-1H-imidazol-4-yl)sulfonyl]pyrrolidin-3-amine], the Ki is at most 1 µM.
As for `O=C(N[C@@H]1CN(S(=O)(=O)c2ccc(C(F)(F)F)cc2)C[C@H]1c1ccccc1)c1cc(Cl)cc(Cl)c1` (relative stereo) [Example 142, 3,5-dichloro-N-[trans-4-phenyl-1-{[4-(trifluoromethyl)phenyl]sulfonyl}pyrrolidin-3-yl]benzamide], the inhibitory constant (Ki) is at most 10 µM.
On the same count and under the same terms, for `CC(CCN[C@H]1CN(S(=O)(=O)c2cn(C)cn2)C[C@@H]1c1ccccc1)CC(C)(C)C` (stereo partly drawn) [Example 464, (3R,4S)-1-[(1-methyl-1H-imidazol-4-yl)sulfonyl]-4-phenyl-N-(3,5,5-trimethylhexyl)pyrrolidin-3-amine] the value was at most 1 µM; for `Cn1cnc(S(=O)(=O)N2C[C@@H](NC(=O)c3ccccc3C#N)[C@H](c3ccccc3)C2)c1` (relative stereo) [Example 32, 2-cyano-N-{trans-1-[(1-methyl-1H-imidazol-4-yl)sulfonyl]-4-phenylpyrrolidin-3-yl} benzamide], at most 10 µM.
As to `O=S(=O)(c1ccc(N2CCOCC2)nc1)N1CC(Nc2ccc(F)c(F)c2)C(c2ccccc2)C1` (stereo not drawn) [Example 494, N-(3,4-difluorophenyl)-1-{[6-(morpholin-4-yl)pyridin-3-yl]sulfonyl}-4-phenylpyrrolidin-3-amine], the inhibition constant Ki is at most 10 µM.
For `Cn1cnc(S(=O)(=O)N2C[C@@H](Nc3ccc(F)c(F)c3)[C@H](c3cccc(F)c3)C2)c1` (relative stereo) [Example 197, trans-N-(3,4-difluorophenyl)-4-(3-fluorophenyl)-1-[(1-methyl-1H-imidazol-4-yl)sulfonyl]pyrrolidin-3-amine], the inhibitory constant (Ki) is at most 1 µM.
The same measure, in the same setting: the value for `Cn1cnc(S(=O)(=O)N2C[C@@H](NC(=O)c3cccc(Cl)c3Cl)[C@H](c3ccccc3)C2)c1` (relative stereo) [Example 31, 2,3-dichloro-N-{trans-1-[(1-methyl-1H-imidazol-4-yl)sulfonyl]-4-phenylpyrrolidin-3-yl}benzamide] was at most 1 µM; that for `Cn1cnc(S(=O)(=O)N2C[C@H](NC(=O)Nc3ccccc3F)[C@@H](c3ccc(F)cc3)C2)c1` [Example 702, 1-(2-fluorophenyl)-3-{(3R,4S)-4-(4-fluorophenyl)-1-[(1-methyl-1H-imidazol-4-yl)sulfonyl]pyrrolidin-3-yl}urea] was at most 10 µM; that for `O=c1[nH]c(=O)c2cc(S(=O)(=O)N3CC(Nc4ccc(F)c(F)c4)C(c4ccccc4)C3)ccc2[nH]1` (stereo not drawn) [Example 480, 6-({3-[(3,4-difluorophenyl)amino]-4-phenylpyrrolidin-1-yl}sulfonyl)quinazoline-2,4(1H,3H)-dione] was over 10 µM.
The same measure, in the same setting: for `O=S(=O)(c1cnc2n1CCC2)N1CC(Nc2ccc(F)c(F)c2)C(c2ccccc2)C1` (stereo not drawn) [Example 497, N-(3,4-difluorophenyl)-1-(6,7-dihydro-5H-pyrrolo[1,2-a]imidazol-3-ylsulfonyl)-4-phenylpyrrolidin-3-amine] the value was at most 10 µM; for `Cc1ccc(S(=O)(=O)N2CC(Nc3ccc(F)c(F)c3)C(c3ccccc3)C2)s1` (stereo not drawn) [Example 518, N-(3,4-difluorophenyl)-1-[(5-methylthiophen-2-yl)sulfonyl]-4-phenylpyrrolidin-3-amine], over 10 µM; for `Cn1cnc(S(=O)(=O)N2CC(NCc3ccc(C(F)(F)F)cc3)C(O)(c3ccccc3)C2)c1` (stereo not drawn) [Example 539, 1-[(1-methyl-1H-imidazol-4-yl)sulfonyl]-3-phenyl-4-{[4-(trifluoromethyl)benzyl]amino}pyrrolidin-3-ol], at most 10 µM.
Turning to `Cn1cnc(S(=O)(=O)N2C[C@@H](NCc3ccc(Cl)cc3)[C@H](c3ccc(F)cc3)C2)c1` (relative stereo) [Example 262, trans-N-(4-chlorobenzyl)-4-(4-fluorophenyl)-1-[(1-methyl-1H-imidazol-4-yl)sulfonyl]pyrrolidin-3-amine], the Ki was at most 0.01 µM.

Still in this test, the particulars now being: radioligand binding, recombinant CHO cell membranes expressing human GlyT1c.
On to `Cn1cnc(S(=O)(=O)N2C[C@@H](OCCNCC(F)(F)F)[C@H](c3ccc(F)cc3)C2)c1` (relative stereo) [Example 814, 2,2,2-trifluoro-N-[2-({trans-4-(4-fluorophenyl)-1-[(1-methyl-1H-imidazol-4-yl)sulfonyl]pyrrolidin-3-yl}oxy)ethyl]ethanamine], for which the inhibition constant Ki is at most 1 µM.
On the same count and under the same terms, the value for `Cn1cnc(S(=O)(=O)N2C[C@@H](NCc3ccc(C(F)(F)F)cc3Cl)[C@H](C3CCCO3)C2)c1` (relative stereo) [Example 822, Trans-N-[2-chloro-4-(trifluoromethyl)benzyl]-1-[(1-methyl-1H-imidazol-4-yl)sulfonyl]-4-(tetrahydrofuran-2-yl)pyrrolidin-3-amine] was at most 1 µM.
